{"source": "patent US11974969B2", "about": "“Artificially synthesized sphingosine derivative lipoid monomer and use of same for delivering nucleic acid” (INSTITUTE OF BASIC MEDICAL SCIENCES CHINESE ACADEMY OF …, priority 2018, dated 2024)", "test_system": "HEK293T cells", "assay": "Flow cytometry (CFlow): delivery of FAM-labeled single-stranded PGY-sRNA-6 into HEK293T cells by different concentrations of single sphingosine derivative (Example 1)", "type": "cell-based, human", "conditions": "for delivery of single-stranded PGY-sRNA-6 into 293T cells (fluorescence shift compared to free uptake group): different concentrations: 3.75, 12.5, 37.5 μg single lipid, 0.1 nmol FAM-labeled sRNA, final 100 nM, 9 hours, flow cytometry; for Lipid delivery group (different concentrations of lipids) 3.75 μg/mL: single sphingosine derivative 3.75 μg/mL; for Lipid delivery group (different concentrations of lipids) 3.75 μg/mL / Lipid delivery group (different concentrations of lipids) 12.5 μg/mL / Lipid delivery group (different concentrations of lipids) 37.5 μg/mL: FAM-labeled PGY-ssRNA-6 100 nM, 293T cells, fluorescence shift by flow cytometry; for Lipid delivery group (different concentrations of lipids) 12.5 μg/mL: single sphingosine derivative 12.5 μg/mL; for Lipid delivery group (different concentrations of lipids) 37.5 μg/mL: single sphingosine derivative 37.5 μg/mL", "protocol": "2.1 5 μl of small RNA (Ribobio, 20 μM, as shown in Table 2) and 95 μL of DEPC (Sigma) treated water were added into a 1.5 ml EP tube and mixed well. Then a certain amount of single lipid or lipid composition in chloroform solution (as shown in Table 1) was added and fully mixed by sucking and blowing;\n2.2 The system was fully mixed and was heated in a water bath at 90° C. for 15 minutes;\n2.3 The system was taken out and cooled down to room temperature.\n4.3 The human embryonic kidney cell line HEK293T and human monocyte THP-1 cells used in the experiment were cultured to logarithmic growth phase, and then plated into 12-well plates with a cell density of 6×10^5/1 mL medium/well. The 12-well plate (1 mL medium/well) was incubated overnight (12 h) at 37° C., followed by subsequent experiments.\n4.4 The experiment groups were as follows: • 1) Naïve group: untreated cells. This group served as a blank control group. • 2) Free uptake group: […] of 5′-FAM labeled small RNA solution (storage concentration is 20 μM) was directly added. This group served as a negative control group; • 3) Lipid nucleic acid mixture treatment group: The mixture of the lipid prepared in step 2 and the 5′-FAM-labeled small RNA was added into the cells and mixed well. The final concentration of small RNA is 100 nM.\n4.5 After co-incubation with cells for 6 h/9 h, the cells were washed three times with PBS. The cells were re-suspended with PBS (self-prepared). The flow cytometer Accuri® C6 instrument (purchased from BD, US) was used to detect the fluorescence intensity of the cells in the sample wells. Implementation method: the software CFlow Plus used in the flow cytometer Accuri® C6 instrument detection was opened, the instrument was washed with cleaning solution for 3 minutes, and then washed with double-distilled water for 5 minutes. The injection of blank group samples was started while setting the number of cells unlimited. The injection of Naïve group samples was stopped when the number of cells detected was 10000 events. The live cell group in the fluorescence spectrum (abscissa: FSC-A, ordinate: SSC-A) was circled as gate P1. With the number of cells set as limited, the detection was stopped when the number of cells in gate P1 reached 10000 events. The fluorescence shift value was obtained in the fluorescence spectrum (abscissa: fluorescence channel FLA-1, ordinate: SSC-A).\n1) Conditions of the boiling method: to 100 μL FAM-labeled single-stranded PGY-sRNA-6 solution was added corresponding amount of lipid solution, and heated at 90° C. for 15 min;\n2) Experimental conditions: the final concentration of small RNA was 100 nM. 9 hours after being added to the cells, the amount of single-stranded PGY-sRNA-6 that entered into the cells was compared by detecting the fluorescence shift using flow cytometry technology. For the detailed protocols, see “Flow cytometry technology (CFlow) determined the uptake amount of nucleic acid that is delivered into cells by lipid”. All experiments were performed in triplicates."}
{"smiles": "CCCCCCCCCCCCC/C=C/[C@@H](O)[C@@H](N)CO[C@@H]1OC(CO)[C@@H](O)C(O)C1O", "note": "(stereo partly drawn) [So-66, D-glucosyl-β1-1′-D-erythro-sphingosine]", "values": [{"measurement": "delivery of single-stranded PGY-sRNA-6 into 293T cells (fluorescence shift compared to free uptake group)", "value": "deliver"}, {"measurement": "Lipid delivery group (different concentrations of lipids) 3.75 μg/mL", "value": 7.10, "unit": "%"}, {"measurement": "Lipid delivery group (different concentrations of lipids) 12.5 μg/mL", "value": 18.10, "unit": "%"}, {"measurement": "Lipid delivery group (different concentrations of lipids) 37.5 μg/mL", "value": 29.50, "unit": "%"}]}
{"smiles": "CCCCCCCCCCCCC/C=C/[C@@H](O)[C@H](CO)NC(=O)CCCCCCCCCCCCCCCCCCCCCCCCCCCCCO", "note": "[So-14, ω-hydroxy-C30 Sphingosine (d18:1/30:0)]", "values": [{"measurement": "delivery of single-stranded PGY-sRNA-6 into 293T cells (fluorescence shift compared to free uptake group)", "value": "deliver"}, {"measurement": "Lipid delivery group (different concentrations of lipids) 3.75 μg/mL", "value": 4.40, "unit": "%"}, {"measurement": "Lipid delivery group (different concentrations of lipids) 12.5 μg/mL", "value": 3.30, "unit": "%"}, {"measurement": "Lipid delivery group (different concentrations of lipids) 37.5 μg/mL", "value": 4.30, "unit": "%"}]}
{"smiles": "CCCCCCCCCCCCC/C=C/[C@@H](O)[C@@H](N)CO", "note": "[So-26, D-erythro-Sphingosine C-18]", "values": [{"measurement": "delivery of single-stranded PGY-sRNA-6 into 293T cells (fluorescence shift compared to free uptake group)", "value": "deliver"}, {"measurement": "Lipid delivery group (different concentrations of lipids) 3.75 μg/mL", "value": 0.20, "unit": "%"}, {"measurement": "Lipid delivery group (different concentrations of lipids) 12.5 μg/mL", "value": 3.80, "unit": "%"}, {"measurement": "Lipid delivery group (different concentrations of lipids) 37.5 μg/mL", "value": 0.50, "unit": "%"}]}
{"smiles": "CCCCCCCCCCCC/C=C/[C@@H](O)[C@@H](N)CO", "note": "[So-53, D-erythro-Sphingosine C-17]", "values": [{"measurement": "delivery of single-stranded PGY-sRNA-6 into 293T cells (fluorescence shift compared to free uptake group)", "value": "deliver"}, {"measurement": "Lipid delivery group (different concentrations of lipids) 3.75 μg/mL", "value": 0.20, "unit": "%"}, {"measurement": "Lipid delivery group (different concentrations of lipids) 12.5 μg/mL", "value": 0.30, "unit": "%"}, {"measurement": "Lipid delivery group (different concentrations of lipids) 37.5 μg/mL", "value": 6.70, "unit": "%"}]}
{"smiles": "CCCCCCCCCC(=O)C(N)CO.Cl", "note": "(centres unmarked) [So-72, 2-amino-1-hydroxy-3-dodecanone, monohydrochloride]", "values": [{"measurement": "delivery of single-stranded PGY-sRNA-6 into 293T cells (fluorescence shift compared to free uptake group)", "value": "deliver"}, {"measurement": "Lipid delivery group (different concentrations of lipids) 3.75 μg/mL", "value": 2.40, "unit": "%"}, {"measurement": "Lipid delivery group (different concentrations of lipids) 12.5 μg/mL", "value": 3.40, "unit": "%"}, {"measurement": "Lipid delivery group (different concentrations of lipids) 37.5 μg/mL", "value": 14.10, "unit": "%"}]}
{"smiles": "CCCCCCCCCCCCCCCC(=O)N[C@@H](CO)[C@H](O)[C@H](O)CCCCCCCCCCCCCC", "note": "[So-68, N-[(1S,2S,3R)-2,3-dihydroxy-1-(hydroxymethyl)heptadecyl]-hexadecanamide]", "values": [{"measurement": "delivery of single-stranded PGY-sRNA-6 into 293T cells (fluorescence shift compared to free uptake group)", "value": "deliver"}, {"measurement": "Lipid delivery group (different concentrations of lipids) 3.75 μg/mL", "value": 4.80, "unit": "%"}, {"measurement": "Lipid delivery group (different concentrations of lipids) 12.5 μg/mL", "value": 3.80, "unit": "%"}, {"measurement": "Lipid delivery group (different concentrations of lipids) 37.5 μg/mL", "value": 3.90, "unit": "%"}]}
{"smiles": "CCCCCCCCCCCCC/C=C/[C@@H](O)[C@H](CO)NC(=O)CCCCCNC(=O)CCCC[C@@H]1SC[C@@H]2NC(=O)N[C@@H]21", "note": "[So-3, N-hexanoyl-biotin-D-erythro-Sphingosine]", "values": [{"measurement": "delivery of single-stranded PGY-sRNA-6 into 293T cells (fluorescence shift compared to free uptake group)", "value": "deliver"}, {"measurement": "Lipid delivery group (different concentrations of lipids) 3.75 μg/mL", "value": 1.40, "unit": "%"}, {"measurement": "Lipid delivery group (different concentrations of lipids) 12.5 μg/mL", "value": 2.10, "unit": "%"}, {"measurement": "Lipid delivery group (different concentrations of lipids) 37.5 μg/mL", "value": 3.40, "unit": "%"}]}
{"smiles": "CCCCCCCCCCCCCCCC(=O)C(N)CO.Cl", "note": "(centres unmarked) [So-8, 3-keto Dihydrosphingosine]", "values": [{"measurement": "delivery of single-stranded PGY-sRNA-6 into 293T cells (fluorescence shift compared to free uptake group)", "value": "deliver"}, {"measurement": "Lipid delivery group (different concentrations of lipids) 3.75 μg/mL", "value": 3.60, "unit": "%"}, {"measurement": "Lipid delivery group (different concentrations of lipids) 12.5 μg/mL", "value": 4.50, "unit": "%"}, {"measurement": "Lipid delivery group (different concentrations of lipids) 37.5 μg/mL", "value": 1.90, "unit": "%"}]}
{"smiles": "CCC/C=C\\CCCCCCCCCC[C@@H](O)[C@H](C)N", "note": "[So-7, 14Z-1-Deoxysphingosine (d18:1)]", "values": [{"measurement": "delivery of single-stranded PGY-sRNA-6 into 293T cells (fluorescence shift compared to free uptake group)", "value": "deliver"}, {"measurement": "Lipid delivery group (different concentrations of lipids) 3.75 μg/mL", "value": 1.20, "unit": "%"}, {"measurement": "Lipid delivery group (different concentrations of lipids) 12.5 μg/mL", "value": 0.20, "unit": "%"}, {"measurement": "Lipid delivery group (different concentrations of lipids) 37.5 μg/mL", "value": 4.30, "unit": "%"}]}
{"smiles": "CCCCCCCCCCCCC/C=C/[C@H](O)[C@H](N)CO", "note": "[So-70, (2R,3S,4E)-2-amino-4-octadecene-1,3-diol]", "values": [{"measurement": "delivery of single-stranded PGY-sRNA-6 into 293T cells (fluorescence shift compared to free uptake group)", "value": "deliver"}, {"measurement": "Lipid delivery group (different concentrations of lipids) 3.75 μg/mL", "value": 4.70, "unit": "%"}, {"measurement": "Lipid delivery group (different concentrations of lipids) 12.5 μg/mL", "value": 10.10, "unit": "%"}, {"measurement": "Lipid delivery group (different concentrations of lipids) 37.5 μg/mL", "value": 11.40, "unit": "%"}]}
{"smiles": "CCCCCCCCCCCCCCC[C@@H](O)[C@@H](N)CO", "note": "(stereo in doubt) [So-71, (2S,3R)-2-amino-1,3-Octadecanediol]", "values": [{"measurement": "delivery of single-stranded PGY-sRNA-6 into 293T cells (fluorescence shift compared to free uptake group)", "value": "deliver"}, {"measurement": "Lipid delivery group (different concentrations of lipids) 3.75 μg/mL", "value": 3.60, "unit": "%"}, {"measurement": "Lipid delivery group (different concentrations of lipids) 12.5 μg/mL", "value": 6.20, "unit": "%"}, {"measurement": "Lipid delivery group (different concentrations of lipids) 37.5 μg/mL", "value": 8.80, "unit": "%"}]}
{"smiles": "CCCCCCCCCCCCC/C=C/[C@@H](O)[C@H](CO[C@@H]1O[C@H](CO)[C@H](O)[C@H](O)[C@H]1O)NC(=O)CCCCCCCCCCCCCC", "note": "[So-61, N-[(1S,2R,3E)-1-[(β-D-galactopyranosyloxy)methy1]-2-hydroxy-3-heptadecen-1-yl]-pentadecanamide]", "values": [{"measurement": "delivery of single-stranded PGY-sRNA-6 into 293T cells (fluorescence shift compared to free uptake group)", "value": "deliver"}, {"measurement": "Lipid delivery group (different concentrations of lipids) 3.75 μg/mL", "value": 7.40, "unit": "%"}, {"measurement": "Lipid delivery group (different concentrations of lipids) 12.5 μg/mL", "value": 8.10, "unit": "%"}, {"measurement": "Lipid delivery group (different concentrations of lipids) 37.5 μg/mL", "value": 7.00, "unit": "%"}]}
{"smiles": "CCCCCCCCCCCCCCC[C@@H](O)[C@H](CO)N(C)C", "note": "[So-11, N,N-dimethyl-D-erythro-Dihydrosphingosine]", "values": [{"measurement": "delivery of single-stranded PGY-sRNA-6 into 293T cells (fluorescence shift compared to free uptake group)", "value": "deliver"}, {"measurement": "Lipid delivery group (different concentrations of lipids) 3.75 μg/mL", "value": 3.60, "unit": "%"}, {"measurement": "Lipid delivery group (different concentrations of lipids) 12.5 μg/mL", "value": 7.40, "unit": "%"}, {"measurement": "Lipid delivery group (different concentrations of lipids) 37.5 μg/mL", "value": 12.70, "unit": "%"}]}
{"smiles": "CCCCCCCCCCCCCC=CC(O)C(COP(=O)(O)OCCN)NC(C)=O", "note": "(centres unmarked) [So-60, N-Acetyl-Sphingosylphosphorylethanolamine]", "values": [{"measurement": "delivery of single-stranded PGY-sRNA-6 into 293T cells (fluorescence shift compared to free uptake group)", "value": "deliver"}, {"measurement": "Lipid delivery group (different concentrations of lipids) 3.75 μg/mL", "value": 7.10, "unit": "%"}, {"measurement": "Lipid delivery group (different concentrations of lipids) 12.5 μg/mL", "value": 7.10, "unit": "%"}, {"measurement": "Lipid delivery group (different concentrations of lipids) 37.5 μg/mL", "value": 6.20, "unit": "%"}]}
